{"source": "patent US20260263468A1", "about": "(Fundación Instituto de Investigación Sanitaria Fundación …, priority 2023, published 2026)", "key": {"[1]": {"tested_on": "K/B×N serum transfer-induced arthritis", "experiment": "Cytokine and chemokine array in gastronemius muscle", "assay_type": "in vivo, C57BL/6J mice", "conditions": "acute model, RA + Dipy", "protocol": "The cytokines concentration was measured by fluorescence using GenePix 4000B following manufacture protocol for serum and frozen samples. Serum samples were used at 2-fold sample dilution. Frozen gastronemius were crushed using a mortar and a pestle cooled with liquid nitrogen. Next, gastronemius were homogenized in a sonicator and the protein isolated in the supernatant quantified with BCA assay. We used 100 μL (1 mg/ml) of total gastronemius protein for cytokine and chemokine array assay."}, "[2]": {"tested_on": "K/B×N serum transfer-induced arthritis", "experiment": "Histological analysis of tibialis anterior (H&E, ATPase, picrosirius red, oil red O)", "description": "Analysis of tibialis tissue structure by Hematoxylin and eosin (H&E) staining was performed. Frozen samples were sectioned at 10 μm. For staining and subsequent processing by image segmentation we followed the indications established by Liu et al (53). Briefly, sections were brought from −80° C. to room temperature and immediately immersed in methanol for 30 min to improve fixation and stained with Hematoxylin and eosin. Image analysis was performed with ImagePro 2.2 using the Muscle Morphometry plugin following Liu's protocol.\nH&E staining was performed on frozen tibialis anterior (TA). Frozen samples were section at 10 μm. For staining and subsequent processing by image segmentation we followed the indications established by Liu et al (53). Briefly, sections were brought from −80° C. to room temperature and immediately immersed in methanol for 30 min to improve fixation and stained with hematoxylin and eosin. Image analysis of cross-sectional area (CSA) was performed with ImagePro 2.2 using the Muscle Morphometry plugin following Liu's protocol.\nATPase staining was performed in TA 10 μM cross-sections as previously described (2). Briefly, cross-sections were incubated 45 min in 0.1 M glycine/NaCl buffer pH 9.4 with 0.75 M CaCl2 and 5 mg ATP (Sigma-Aldrich). After rinsed in distilled water, sections were incubated in 2% cobalt chloride, and then immersed in dilute (1/10) ammonium chloride to develop type 1 (white) and type 2 (black) fibers. After dehydration, sections were mounted with DPX mounting medium (VWR International Ltd., Lutterworth, UK). The quantification of the fiber types was performed using the Image J software package 1.49v (NIH, Bethesda, MD, USA).\nPicrosirius Red staining was performed in TA to visualized tissue fibrosis. Slides were air-drayed for 30 min at room temperature and fixed in PFA 4% 30 min. Next, the sections were incubated for 90 min in picrosirius red solution (Polysciences) and immersed immediately in 0.1M HCl solution (Polysciences) for 1 min. The sections were washed 2 times in H2O, dehydrated in serial dilutions of alcohol and mounted with DPX. Bright field and polarized light images were taken. The quantification of infiltration of collagen I were performed using the Image J software package 1.49v (NIH, Bethesda, MD, USA) on polarized images.\nTo visualize triglycerides infiltration in the muscle, serial frozen TA 10 μm cross-sections were thaw and air dry and fixed in PFA 4% for 1 h before oil red O staining. […] Then we isolate the oil red staining retained in muscle with 200 μL of isopropanol in agitation to quantify the fat infiltrated in every muscle. The oil red released was read from 75 μL samples in a 96-well plate by Tecan Spark 20M in duplicate at 500 nm."}, "C2C12 myobundles": {"tested_on": "C2C12 myobundles", "experiment": "C2C12 3D myobundle with IL-6 ± dipyridamole", "assay_type": "cell-based", "conditions": "IL-6 2.5 μg/ml ± dipyridamole 1 μM, 14 days; Sham 890±39", "excerpt": "C2C12 myobundles were fabricated following the protocol described by Bursac group (see references in ref. 44). Briefly, molds of polydimethylsiloxane (PDMS) designed for 12-well plates were created from Teflon masters with semicylindrical wells. These molds were sterilized, coated with 0.2% (w/v) Pluronic F-127 (Invitrogen) to prevent tissue adhesion, and paired with laser-cut Cerex frames (9×9 mm^2, 1-mm-wide rim) for myobundle attachment. The frames served as an anchor and guide during hydrogel compaction, ensuring uniaxial cell alignment. C2C12 cells were encapsulated in a hydrogel solution, including bovine fibrinogen (Sigma-Aldrich), matrigel (Corning), bovine thrombin (Sigma-Aldrich), and growth medium as concentration of bursac group indicates Referencias. The cell/hydrogel mixture was polymerized in the PDMS molds, and myobundles were cultured in a humidified chamber at 37° C., in 95% air and 5% CO2. After 4 days, the frames with myobundles were suspended in DM with treatments. DM and treatments are replaced every two days. GM and DM media contained 6-aminocaproic acid to reduce fibrinolysis. […] After the 14 days of treatment a bright-field photograph was taken to analyze the thickness of the fiber at its midpoint, and subsequently, they were embedded in OCT medium. […]"}, "C2C12": {"tested_on": "C2C12", "experiment": "Western blot of PKA isoforms, pCREB, EPAC1/2", "assay_type": "cell-based", "conditions": "1 μM", "protocol": "Cells were lysed with RIPA buffer and protein concentration was determined by BCA. […] Variations in intensity were expressed as % of basal (day 0) and expressed as mean±SEM. All results were calculated as a percentage of non-differentiated controls to minimize the intrinsic variation among different experiments.\nTo study the CAMP signaling pathway, we analyzed the expression of PKA on its three catalytic isoforms PKAα, PKAβ and PKAγ as well as EPAC1/2. […] Tenofovir reduced its phosphorylation (154±9% tenofovir vs 247±30% control at day 4, p<0.05, FIG. 3B)."}, "[3]": {"tested_on": "K/B×N serum transfer-induced arthritis", "experiment": "K/B×N serum transfer-induced arthritis, acute model: joint thickness, clinical score, body weight", "assay_type": "in vivo, C57BL/6J mice", "protocol": "In their quest for a model of inflammatory arthritis which could display associated sarcopenia the inventors employed serum transfer from K/B×N progeny in 12-wk-old C57BL/6J mice. Arthritic K/B×N mice were generated by crossing KRN mice with NOD/Lt mice. Serum was collected and pulled. Age-matched, male recipient, 12-wk-old C57BL/6J mice were purchased from Charles River Laboratories (Barcelona, España). C57BL/6J mice were injected with pooled serum (100 μl, I.P.) from K/B×N mice on day 0 and 2.\n(§1) Development of arthritis was assessed daily, and the severity of arthritis was assessed in each paw on a 4-point scale defined as follows: 0=normal appearance, 1=localized edema/erythema over one surface of the paw, 2=edema/erythema involving more than one surface of the paw, and 3-4=marked edema/erythema involving the whole paw. Scores of all 4 paws were added for a composite score. All motor activity tests were performed prior to serum inoculation and at the highest point of inflammation. Mice were euthanized on day 14. Gastronemius and quadriceps were collected for protein and RNA extraction. Tibialis and soleus were included for freeze histology following the indications of H. Meng (1). Bones were prepared for micro-computed tomography (microCT) and histology. White adipose tissue (WAT) and brown adipose tissue (BAT) were collected for histology and protein extraction. Blood was drawn and serum was isolated for measurement of inflammatory cytokines and C-reactive protein (CPR).\nAnimals were sacrificed 30 days after serum transfer.\nas §1, with “Mice were weighted weekly. Development” for “Development”, “16 for acute inflammation model or 30 days for Inflammation resolved model. A representative photo of body structure and muscle of pawn were taken on this day.” for “14.”, “was” for “and quadriceps were”, “(see references in ref. 44).” for “(1).”, “histology.” for “histology. White adipose tissue (WAT) and brown adipose tissue (BAT) were collected for histology and protein extraction.”"}}, "data": [{"smiles": "OCCN(CCO)c1nc(N2CCCCC2)c2nc(N(CCO)CCO)nc(N3CCCCC3)c2n1", "note": "[dipyridamole, 2,6-bis(Diethanolamino)-4,8-dipiperidinopyrimido[5,4-d]pyrimidine]", "values": [{"measurement": "Muscle IL-1α", "setting": "[1]", "value": "3.5 ± 0.2", "unit": "pg/mL"}, {"measurement": "Muscle IL-1β", "setting": "[1]", "value": "13.9 ± 1.9 $$ pg/ml"}, {"measurement": "Muscle IL-2", "setting": "[1]", "value": "8 ± 2.8", "unit": "pg/mL"}, {"measurement": "Muscle IL-3", "setting": "[1]", "value": "1 ± 0.2", "unit": "pg/mL"}, {"measurement": "Muscle IL-4", "setting": "[1]", "value": "23 ± 1.9", "unit": "pg/mL"}, {"measurement": "Muscle IL-5", "setting": "[1]", "value": "5.5 ± 0.8", "unit": "pg/mL"}, {"measurement": "Muscle IL-6", "setting": "[1]", "value": "6.9 ± 0.6 **/$ pg/ml"}, {"measurement": "Muscle IL-9", "setting": "[1]", "value": "13.1 ± 2.5", "unit": "pg/mL"}, {"measurement": "Muscle IL-10", "setting": "[1]", "value": "32.5 ± 2.3 **/ $ pg/ml"}, {"measurement": "Muscle IL-13", "setting": "[1]", "value": "11.3 ± 0.9", "unit": "pg/mL"}, {"measurement": "Muscle IL-17", "setting": "[1]", "value": "7 ± 1.3", "unit": "pg/mL"}, {"measurement": "Muscle INFγ", "setting": "[1]", "value": "48.7 ± 4.8 */$ pg/ml"}, {"measurement": "Muscle KC (CXCL1)", "setting": "[1]", "value": "1.2 ± 0.7", "unit": "pg/mL"}, {"measurement": "Muscle M-CSF", "setting": "[1]", "value": "11.8 ± 1.6", "unit": "pg/mL"}, {"measurement": "Muscle RANTES", "setting": "[1]", "value": "4.7 ± 0.5", "unit": "pg/mL"}, {"measurement": "Muscle TNF-α", "setting": "[1]", "value": "24.6 ± 1.2", "unit": "pg/mL"}, {"measurement": "Muscle VEGF", "setting": "[1]", "value": "122 ± 12.9", "unit": "pg/mL"}, {"measurement": "Muscle MCP-1", "setting": "[1]; listed as Dipy", "value": "43.8 ± 9.9 */$ pg/ml"}, {"measurement": "Muscle MCP-1", "setting": "[1]; listed as dipy", "value": "43.8 ± 9.9", "unit": "pg/mL"}, {"measurement": "Collagen I fibers (Picrosirius Red)", "setting": "[2]; RA+Dipy, RA 111.1±1.20%, Sham 100±1.26%", "value": "94.78±0.98", "unit": "%"}, {"measurement": "Fat infiltrate in TA (Oil Red staining)", "setting": "[2]; RA+Dipy, RA 170.1±6.94%, Sham 100±3.97%", "value": "99.21±7.217", "unit": "%"}, {"measurement": "Tibialis muscle fiber area", "setting": "[2]; arthritic mice + dipyridamole, acute model, arthritic 508±20, sham 1211±43", "value": "1305±35", "unit": "μm^2"}, {"measurement": "Fat infiltration across whole muscle (TA and EDL)", "setting": "[2]; healthy mice, dipy alone", "value": "able to decrease this fat infiltration"}, {"measurement": "Myobundle thickness", "setting": "C2C12 myobundles", "value": "did not lead to an alteration of the muscle fiber"}, {"measurement": "pCREB (% of basal)", "setting": "C2C12; day 4, control 247±30%", "value": "275±73", "unit": "%"}, {"measurement": "EPAC2 protein expression", "setting": "C2C12; within differentiation", "value": "decreased"}, {"measurement": "Weight loss", "setting": "[3]; arthritic mice, 2 weeks of treatment, arthritic 14.2±4.1%", "value": "6.2±3.4", "unit": "%"}, {"measurement": "Paw (joint) thickness", "setting": "[3]; arthritic mice, daily dipyridamole, 2 wk, arthritic 1.72±0.09", "value": "0.5±0.01", "unit": "mm"}, {"measurement": "Clinical score (inflammation)", "setting": "[3]; arthritic mice, daily dipyridamole, 2 wk, arthritic 14±1", "value": "5±3"}, {"measurement": "Hind paw musculature (macroscopic)", "setting": "[3]; healthy mice, dipy alone, two weeks", "value": "no significant changes"}, {"measurement": "Percentage of weight", "setting": "[3]; healthy mice, dipyridamole 25 mg/kg/day alone, 2 weeks", "value": "did not change"}]}]}
